Measurements: article PMC7730851, “Expression of Somatostatin Receptor Subtypes (SSTR-1–SSTR-5) in Pediatric Hematological and Oncological Disorders” (Molecules, 2020)
Entries after “also recorded” stand apart in the source; their conditions may differ. Where two headings read alike, the source gives them in different places. Blank lines part the entries; values can stand above or below the compound they belong to. Positions of bridges follow the written chain, without caps; N, C: chain ends. Non-standard residues stand in square brackets, D forms with d. Residues, ends and D or L forms follow the SMILES beside them.

What was measured:
SSTR-5 = conditions: cited from earlier work
[1] = target: somatostatin receptors (SSTR); test: Ligand competition assay: binding of [125I]RC-160 to membrane homogenates of pediatric solid tumor samples (Scatchard / LIGAND-PC); set-up: species or system human
Description: (§1) Receptor binding affinities and concentrations of SSTRs in tumor membranes were also studied. […] Biochemical specifications and parameters crucial to characterize specific binding sites were also defined. […] Various peptides structurally related or unrelated to SST were used in these studies.
(§2) The radioiodinated derivatives of the RC-160 SST analogue were prepared by the chloramine-T method and purified by reverse phase high-performance liquid chromatography (RP-HPLC) as described previously. Somatostatin receptor-binding assays were performed as described previously with some minor modifications, using in vitro ligand competition assays based on the binding of [^125I] RC-160 as a radioligand to membrane fractions of the pediatric samples. This radioiodinated ligand has been well characterized and reported previously and has high affinity for SSTR-2 and SSTR-5 [4]. Tumor membrane homogenates were incubated as competitors with 50,000–70,000 cpm radioiodinated RC-160 and 10^−12–10^−6 M nonradioactive peptides. After incubation for 2 h, the binding reactions were stopped, and the bound ligand was separated and counted in a gamma counter. The LIGAND-PC computer curve-fitting software of Munson and Rodbard was used to determine the type of receptor binding, the dissociation constant (Kd), and the maximal binding capacity of SSTRs (Bmax). […] The final binding affinities were expressed as IC50 values. Protein concentration was determined by the method of Bradford using a Bio-Rad protein assay kit (Bio-Rad Laboratories, Inc.).

SSTR-2 = conditions: cited from earlier work
[2] = tested on: somatostatin receptors (SSTR); test: Displacement of [125I]RC-160 binding from membranes of human pediatric tumors by unlabeled peptides; conditions: for inhibition/displacement of the binding of radioiodinated RC-160: pediatric tumor membranes, competitor 10^-12-10^-6 M, concentrations as high as 1 µM; for displacement of [125I]RC-160 binding: membrane fractions of human rhabdomyosarcoma specimen, Figure 3
Description: as §1
Displacement of [^125I] RC-160 as a radioligand by the unlabeled SST analogs as competitor was determined.
as §2

SSTR-1 = conditions: cited from earlier work
SSTR-3 = conditions: cited from earlier work

Compound: CC(C)[C@@H]1NC(=O)[C@H](CCCCN)NC(=O)[C@@H](Cc2c[nH]c3ccccc23)NC(=O)[C@H](Cc2ccc(O)cc2)NC(=O)[C@@H](NC(=O)[C@H](N)Cc2ccccc2)CSSC[C@@H](C(=O)N[C@@H](Cc2c[nH]c3ccccc23)C(N)=O)NC1=O [[125I]RC-160] (H-[dF]CY[dW]KVCW-NH2; disulfide 2-7)
affinity for SSTR-5 (SSTR-5): high affinity | Kd ([1]; mean of seven receptor-positive pediatric tumor samples, read-out: mean dissociation constant (Kd)): 6 nM | Kd ([1]; patient 1, teratoma membranes, duplicates, read-out: SSTR Kd): 5.76 nM | Kd ([1]; patient 4, Hodgkin lymphoma membranes, duplicates, read-out: SSTR Kd): 8.01 nM | Kd ([1]; patient 5, rhabdomyosarcoma membranes, duplicates, read-out: SSTR Kd): 8.12 nM | Kd ([1]; patient 6, rhabdomyosarcoma membranes, duplicates, read-out: SSTR Kd): 4.31 nM | Kd ([1]; patient 7, hamartoma membranes, duplicates, read-out: SSTR Kd): 4.02 nM | Kd ([1]; range over seven receptor-positive pediatric tumor samples, read-out: dissociation constant (Kd), range): 4.02 to 8.12 nM | affinity for SSTR-2 (SSTR-2): high affinity

Compound: SST-14: somatostatin-14, native peptide
inhibition/displacement of the binding of radioiodinated RC-160 [2]: displaced completely

Compound: VIP: unrelated peptide used as specificity control (Figure 3)
displacement of [125I]RC-160 binding [2]: did not displace

Compound: growth hormone-releasing hormone (GHRH): unrelated peptide used as specificity control
displacement of [125I]RC-160 binding [2]: did not displace | inhibition/displacement of the binding of radioiodinated RC-160 [2]: none

Compound: octreotide
affinity to SSTR-1 (SSTR-1): lower binding affinity | affinity to SSTR-5 (SSTR-5): high affinity; also recorded: approximately similar affinity | affinity to SSTR-2 (SSTR-2): high affinity; also recorded: highest affinity | affinity to SSTR-3 (SSTR-3): approximately similar affinity

Compound: pasireotide
affinity to SSTR-1 (SSTR-1): possesses an affinity | affinity to SSTR-5 (SSTR-5): possesses an affinity | affinity to SSTR-3 (SSTR-3): possesses an affinity

The remaining lines, values ahead:

inhibition/displacement of the binding of radioiodinated RC-160 [2]: none
Compound: [Tyr4]bombesin

displacement of [125I]RC-160 binding [2]: did not displace
Compound: bombesin

inhibition/displacement of the binding of radioiodinated RC-160 [2]: none
Compound: insulin-like growth factor I: unrelated peptide used as specificity control

displacement of [125I]RC-160 binding [2]: did not displace | inhibition/displacement of the binding of radioiodinated RC-160 [2]: none
Compound: luteinizing hormone-releasing hormone (LHRH): unrelated peptide used as specificity control
